Source: patent US9415055B2, “Cyclic amines” (H. Lundbeck A/S, priority 2012, dated 2016)

Target: P2X7 receptor (Homo sapiens (Human), UniProt Q99572)
Test: P2X7 FLIPR assay: antagonism of BzATP response in 293 HEK cells stably expressing P2X7 receptor
Format: cell-based
Conditions: FLIPR fluorescence (Fluo-4), agonist BzATP, 293 HEK cells stably transfected with P2X7 receptor
Protocol: Cells were plated to cell density of approximately 15,000 cells/well in 384-well assay plates (50 μl/well) with 1.5% low serum media (DMEM, 1.5% BCS, 1% L-glut (2 mM), 1% P/S).
Cells were plated to cell density of approximately 15,000 cells/well in 384-well assay plates (50 μl/well) with 1.5% low serum media (DMEM, 1.5% FBS, 1% L-glut (2 mM), 10 mM HEPES, 1% P/S). Cells were plated 24 hours prior to assay. Cells expressing human, rat or mouse P2X7 receptor were assayed in the following manner.
Fluo-4 NW dye mix (Molecular Probes, Inc., Eugene, Oreg., USA) was prepared in buffer (see manufacturer's instructions). Cell plates were removed from the 37° C. incubator, the media discarded and then 30 μL of dye was added to each well. Plates were placed in the 37° C., non-CO2 incubator for 30 minutes and then room temperature for 30 minutes.
Compound mixtures (A) were added to assay plates containing cells and placed at room temperature for 30 minutes, then BzATP (B) was added. Fluorescence was read using the Tetra FLIPR® (Molecular Devices, Inc., Sunnyvale, Calif., USA) and IC50 values were calculated by standard methods to determine antagonist activity.

P2X7 receptor, sequence (Q99572 whole entry): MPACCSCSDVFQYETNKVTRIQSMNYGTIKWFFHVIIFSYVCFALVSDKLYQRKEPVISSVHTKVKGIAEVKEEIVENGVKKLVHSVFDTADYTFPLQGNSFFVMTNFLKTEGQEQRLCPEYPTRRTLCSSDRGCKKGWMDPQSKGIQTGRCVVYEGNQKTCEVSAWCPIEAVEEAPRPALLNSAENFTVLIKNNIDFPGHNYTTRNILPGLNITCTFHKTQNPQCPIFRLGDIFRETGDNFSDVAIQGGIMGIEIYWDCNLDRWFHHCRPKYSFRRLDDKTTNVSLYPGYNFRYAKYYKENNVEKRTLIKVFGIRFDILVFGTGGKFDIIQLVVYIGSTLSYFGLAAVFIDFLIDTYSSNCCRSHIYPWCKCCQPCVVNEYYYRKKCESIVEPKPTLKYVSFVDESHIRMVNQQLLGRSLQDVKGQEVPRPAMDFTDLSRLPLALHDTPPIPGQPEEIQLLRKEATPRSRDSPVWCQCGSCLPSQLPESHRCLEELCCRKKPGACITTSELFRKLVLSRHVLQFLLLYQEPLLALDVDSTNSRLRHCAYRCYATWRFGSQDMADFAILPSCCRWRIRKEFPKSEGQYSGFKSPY

| IC50 [nM] | SMILES |
| --- | --- |
| 3.2 | Cc1ncc(C(CNC(=O)c2cccc(Cl)c2Cl)N2CCC(F)(F)CC2)cn1 (single isomer, unassigned; (+)) [(+)2,3-dichloro-N-[2-(4,4-difluoro-1-piperidyl)-2-(2-methylp] [(+)2,3-dichloro-N-(2-(4,4-difluoropiperidin-1-yl)-2-(2-methylpyrimidin-5-yl)ethyl)benzamide] |
| 1400 | Cc1cccc(C(=O)NCC(c2ccncc2)N2CCOCC2)c1C (centres unmarked) [2,3-Dimethyl-N-(2-morpholin-4-yl-2-pyridin-4-yl-ethyl)-benzamide] |
| 30 | O=C(NCC(c1cnc(C(F)(F)F)nc1)N1CCOCC1)c1ccccc1Cl (single isomer, unassigned; (+)) [(+)2-chloro-N-[2-morpholino-2-[2-(trifluoromethyl)pyrimidin-] [(+)2-Chloro-N-[2-morpholino-2-[2-(trifluoromethyl)pyrimidin-5-yl]ethyl]benzamide] |
| 8.2 | O=C(NCC(c1cnc(C(F)(F)F)nc1)N1CCC(F)(F)CC1)c1c(F)cccc1Cl (single isomer, unassigned; (-)) [(−)2-chloro-N-[2-(4,4-difluoro-1-piperidyl)-2-[2-(trifluorom] [(−)2-chloro-6-fluoro-N-(2-(4,4-difluoropiperidin-1-yl)-2-(trifluoromethyl)pyrimidin-5-yl)ethyl)benzamide] |
| 44 | Cc1ncc(C(CNC(=O)c2ccc(Cl)cc2Cl)N2CCC(F)(F)CC2)cn1 (centres unmarked) [2,4-dichloro-N-(2-(4,4-difluoropiperidin-1-yl)-2-(2-methylpyrimidin-5-yl)ethyl)benzamide] |
| 9.4 | O=C(NCC(c1cnc(C(F)(F)F)nc1)N1CCC(F)(F)CC1)c1c(F)cc(F)cc1Cl (single isomer, unassigned; (+)) [(+)2-chloro-N-[2-(4,4-difluoro-1-piperidyl)-2-[2-(trifluorom] [(+)2-chloro-4,6-difluoro-N-(2-(4,4-difluoropiperidin-1-yl)-2-(2-(trifluoromethyl)pyrimidin-5-yl)ethyl)benzamide] |
| 53 | Cc1ncc(C(CNC(=O)c2c(F)cccc2Cl)N2CCCC(F)(F)C2)cn1 (single isomer, unassigned; (+)) [(+)2-chloro-N-[2-(3,3-difluoro-1-piperidyl)-2-(2-methylpyrim] [(+)2-chloro-6-fluoro-N-(2-(3,3-difluoropiperidin-1-yl)-2-(2-methylpyrimidin-5-yl)ethyl)benzamide] |
| 31 | COc1ccc(F)c(C(=O)NCC(c2cnc(C(F)(F)F)nc2)N2CCC(F)(F)CC2)c1Cl (single isomer, unassigned; (-)) [(−)2-chloro-N-[2-(4,4-difluoro-1-piperidyl)-2-[2-(trifluorom] [(−)2-chloro-N-(2-(4,4-difluoropiperidin-1-yl)-2-(2-(trifluoromethyl)pyrimidin-5-yl)ethyl)-6-fluoro-3-methoxybenzamide] |
| 15 | O=C(NCC(c1cnc(C(F)(F)F)nc1)N1CCC(F)(F)CC1)c1c(Cl)cc(F)cc1Cl (single isomer, unassigned; (-)) [(−)2,6-dichloro-N-[2-(4,4-difluoro-1-piperidyl)-2-[2-(triflu] [(−)2,6-dichloro-4-fluoro-N-(2-(4,4-difluoropiperidin-1-yl)-2-(2-(trifluoromethyl)pyrimidin-5-yl)ethyl)benzamide] |
| 5.7 | Cc1ncc(C(CNC(=O)c2cccc(Cl)c2Cl)N2CCC(Cl)CC2)cn1 (centres unmarked) [2,3-dichloro-N-(2-(4-chloropiperidin-1-yl)-2-(2-methylpyrimidin-5-yl)ethyl)benzamide] |
| 1.5 | COc1cccc(C(=O)NCC(c2ccc(Cl)cc2)N2CCOCC2)c1Cl (single isomer, unassigned; (-)) [(−)2-chloro-N-[2-(4-chlorophenyl)-2-morpholino-ethyl]-3-meth] [(−)2-chloro-N-(2-(4-chlorophenyl)-2-morpholinoethyl)-3-methoxybenzamide] |
| 680 | Cc1ncc(C(CNC(=O)c2ccccc2Cl)N2CCCOCC2)cn1 (centres unmarked) [2-chloro-N-(2-(2-methylpyrimidin-5-yl)-2-(1,4-oxazepan-4-yl)ethyl)benzamide] |
| 970 | Cc1ncc(C(CNC(=O)c2ccc(Cl)cc2Cl)N2CCC(=O)CC2)cn1 (centres unmarked) [2,4-dichloro-N-(2-(2-methylpyrimidin-5-yl)-2-(-1-yl)ethyl)benzamide] |
| 44 | Cn1cc(C(CNC(=O)c2c(Cl)cccc2Cl)N2CCC(F)(F)CC2)cn1 (single isomer, unassigned; (-)) [(−)2,6-dichloro-N-[2-(4,4-difluoro-1-piperidyl)-2-(1-methylp] [(−)2,6-dichloro-N-(2-(4,4-difluoropiperidin-1-yl)-2-(1-methyl-1H-pyrazol-4-yl)ethyl)benzamide] |
| 11 | O=C(NCC(c1ccc(F)cc1)N1CCOCC1)c1cccc(Cl)c1Cl (centres unmarked) [2,3-Dichloro-N-[2-(4-fluoro-phenyl)-2-morpholin-4-yl-ethyl]-benzamide] |
| 7.8 | COc1ccc(C(=O)NCC(c2cnc(C(F)(F)F)nc2)N2CCC(F)(F)CC2)c(Cl)c1OC (single isomer, unassigned; (-)) [(−)2-chloro-N-[2-(4,4-difluoro-1-piperidyl)-2-[2-(trifluorom] [(−)2-chloro-3,4-dimethoxy-N-(2-(4,4-difluoropiperidin-1-yl)-2-(2-(trifluoromethyl)pyrimidin-5-yl)ethyl)benzamide] |
| 27 | Cc1ncc(C(CNC(=O)c2cccc(Cl)c2Cl)N2CCOCC2)cn1 (single isomer, unassigned; (-)) [(−)2,3-dichloro-N-[2-(2-methylpyrimidin-5-yl)-2-morpholino-e] [(−)2,3-Dichloro-N-[2-(2-methylpyrimidin-5-yl)-2-morpholino-ethyl]benzamide] |
| 2500 | CC1(C)CCN(C(CNC(=O)c2cccc(Cl)c2Cl)c2cnc(C(F)(F)F)nc2)CC1 (centres unmarked) [2,3-dichloro-N-(2-(4,4-dimethylpiperidin-1-yl)-2-(2-(trifluoromethyl)pyrimidin-5-yl)ethyl)benzamide] |
| 0.65 | O=C(NCC(c1cnc(C(F)(F)F)nc1)N1CCC(F)(F)CC1)c1cccc(Cl)c1Cl (centres unmarked) [2,3-dichloro-N-(2-(4,4-difluoropiperidin-1-yl)-2-(2-(trifluoromethyl)pyrimidin-5-yl)ethyl)benzamide] |
| 0.89 | O=C(NCC(c1ccc(F)nc1)N1CCC(F)(F)CC1)c1cccc(Cl)c1Cl (centres unmarked) [2,3-Dichloro-N-[2-(4,4-difluoro-1-piperidyl)-2-(6-fluoro-3-pyridyl)ethyl]benzamide] |
| 2.2 | O=C(NCC(c1cnc(C(F)(F)F)nc1)N1CCC(F)(F)CC1)c1cc(F)cc(Cl)c1Cl (single isomer, unassigned; (-)) [(−)2,3-dichloro-N-[2-(4,4-difluoro-1-piperidyl)-2-[2-(triflu] [(−)2,3-dichloro-5-fluoro-N-(2-(4,4-difluoropiperidin-1-yl)-2-(2-(trifluoromethyl)pyrimidin-5-yl)ethyl)benzamide] |
| 4.3 | Cc1ncc(C(CNC(=O)c2cccc(Cl)c2Cl)N2CCC(F)(F)CC2)cn1 (centres unmarked) [2,3-dichloro-N-[2-(4,4-difluoro-1-piperidyl)-2-(2-methylpyri] [2,3-dichloro-N-(2-(4,4-difluoropiperidin-1-yl)-2-(2-methylpyrimidin-5-yl)ethyl)benzamide] |
| 21 | Cc1ccc(C(CNC(=O)c2cccc(F)c2Cl)N2CCC(F)(F)CC2)cn1 (single isomer, unassigned; (-)) [(−)2-chloro-N-[2-(4,4-difluoro-1-piperidyl)-2-(6-methyl-3-pr] [(−)2-chloro-3-fluoro-N-(2-(4,4-difluoropiperidin-1-yl)-2-(2-methylpyridin-5-yl)ethyl)benzamide] |
| 41 | Cc1ncc(C(CNC(=O)c2cccc(F)c2Cl)N2CCCC(F)(F)C2)cn1 (single isomer, unassigned; (-)) [(−)2-chloro-N-[2-(3,3-difluoro-1-piperidyl)-2-(2-methylpyrim] [(−)2-chloro-3-fluoro-N-(2-(3,3-difluoropiperidin-1-yl)-2-(2-methylpyrimidin-5-yl)ethyl)benzamide] |
| 5.8 | Cc1ncc(C(CNC(=O)c2cccc(Cl)c2Cl)N2CCC(F)(F)CC2)cn1 (single isomer, unassigned; (-)) [(−)2,3-dichloro-N-[2-(4,4-difluoro-1-piperidyl)-2-(2-methylp] [(−)2,3-dichloro-N-(2-(4,4-difluoropiperidin-1-yl)-2-(2-methylpyrimidin-5-yl)ethyl)benzamide] |
| 3800 | COC1CCN(C(CNC(=O)c2cccc(Cl)c2Cl)c2cnc(C)nc2)CC1 (centres unmarked) [2,3-dichloro-N-(2-(4-methoxypiperidin-1-yl)-2-(2-methylpyrimidin-5-yl)ethyl)benzamide] |
| 98 | COc1ccccc1C(=O)NCC(c1ccc(C(F)(F)F)nc1)N1CCOCC1 (single isomer, unassigned; (+)) [(+)-2-methoxy-N-(2-morpholino-2-(6-(trifluoromethyl)pyridin-] [(+)2-1\4ethoxy-N-[2-morpholin-4-yl-2-(6-trifluoromethyl-pyridin-3-yl)-ethyl]-benzamide] |
| 170 | Cc1ncc(C(CNC(=O)c2cccc(Cl)c2Cl)N2CCCC(C)C2)cn1 (centres unmarked) [2,3-dichloro-N-(2-(3-methylpiperidin-1-yl)-2-(2-methylpyrimidin-5-yl)ethyl)benzamide] |
| 110 | Cc1ccccc1C(=O)NCC(c1ccc(F)cc1)N1CCOCC1 (centres unmarked) [N-[2-(4-Fluoro-phenyl)-2-morpholin-4-yl-ethyl]-2-methyl-benzamide] |
